Data set [1] has as its target Beta-lactamase (Bacillus licheniformis, UniProt P00808). The data set is described as follows: Inhibition of Bacillus licheniformis BS3 beta-lactamase at pH 5.
Data set [2] deals with T1, Imipenem-hydrolyzing beta-lactamase (Enterobacter cloacae) (UniProt P52663).
T1 sequence (whole entry): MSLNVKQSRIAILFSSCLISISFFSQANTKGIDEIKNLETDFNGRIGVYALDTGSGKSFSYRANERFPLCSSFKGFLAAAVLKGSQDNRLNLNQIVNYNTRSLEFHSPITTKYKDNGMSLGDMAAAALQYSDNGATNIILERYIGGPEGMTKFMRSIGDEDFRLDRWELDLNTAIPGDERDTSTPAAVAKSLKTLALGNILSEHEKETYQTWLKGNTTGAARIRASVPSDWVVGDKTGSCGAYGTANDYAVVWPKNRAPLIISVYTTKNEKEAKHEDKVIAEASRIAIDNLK
Description: Inhibition of Enterobacter cloacae NMCA beta-lactamase assessed as residual activity at 100 uM at pH 7 using phosphate buffer by spectrophotometry; values are per cent of control.

Data set [3] has as its target Beta-lactamase (Bacillus licheniformis) (UniProt P00808). The data set is described as follows: Inhibition of Bacillus licheniformis BS3 beta-lactamase assessed as residual activity at 100 uM at pH 7 using phosphate buffer by spectrophotometry; values are per cent of control.
In data set [4] the target is Beta-lactamase OXA-10 (Pseudomonas aeruginosa) (UniProt P14489). Description: Inhibition of Pseudomonas aeruginosa OXA10 beta-lactamase assessed as residual activity at 100 uM at pH 7 using phosphate buffer by spectrophotometry; values are per cent of control.
Data set [5] can be described thus: Inhibition of TEM1 beta-lactamase assessed as residual activity at 100 uM at pH 7 using phosphate buffer by spectrophotometry; values are per cent of control.
Data set [6] has as its target Beta-lactamase VIM-4 (Pseudomonas aeruginosa) (UniProt Q8KRJ3). The data set is described as follows: Inhibition of Pseudomonas aeruginosa VIM4 beta-lactamase assessed as residual activity at 100 uM at pH 7 using HEPES buffer by spectrophotometry; values are per cent of control.
For data set [7], the system named is Bacillus cereus. The data set is described as follows: Inhibition of Bacillus cereus BC2 beta-lactamase assessed as residual activity at 100 uM at pH 5 using acetate buffer by spectrophotometry; values are per cent of control.
For data set [8], the target named is Beta-lactamase (Enterobacter cloacae) (UniProt P05364). Description: Inhibition of Enterobacter cloacae P99 beta-lactamase assessed as residual activity at 100 uM at pH 7 using phosphate buffer by spectrophotometry; values are per cent of control.
Chain of Beta-lactamase (Enterobacter cloacae) (P05364 21-381 limits assumed): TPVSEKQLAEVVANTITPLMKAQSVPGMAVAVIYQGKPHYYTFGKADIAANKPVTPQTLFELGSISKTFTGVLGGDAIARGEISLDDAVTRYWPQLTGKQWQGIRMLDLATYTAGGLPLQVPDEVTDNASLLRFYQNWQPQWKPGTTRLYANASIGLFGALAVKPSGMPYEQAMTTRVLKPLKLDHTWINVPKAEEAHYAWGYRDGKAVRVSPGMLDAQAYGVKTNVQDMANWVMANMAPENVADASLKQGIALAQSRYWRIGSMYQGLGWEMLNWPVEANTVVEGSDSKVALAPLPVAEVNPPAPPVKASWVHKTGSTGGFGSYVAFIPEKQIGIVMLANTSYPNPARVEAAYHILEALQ
Data set [9] deals with Bacillus cereus. The data set is described as follows: Inhibition of Bacillus cereus BC2 beta-lactamase assessed as residual activity at 100 uM at pH 7 using HEPES buffer by spectrophotometry; values are per cent of control.
Data set [10] deals with Beta-lactamase (Bacillus licheniformis) (UniProt P00808). Description: Inhibition of Bacillus licheniformis BS3 beta-lactamase assessed as residual activity at 100 uM at pH 5 using acetate buffer by spectrophotometry; values are per cent of control.
Chain of Beta-lactamase (Bacillus licheniformis) (P00808 whole entry): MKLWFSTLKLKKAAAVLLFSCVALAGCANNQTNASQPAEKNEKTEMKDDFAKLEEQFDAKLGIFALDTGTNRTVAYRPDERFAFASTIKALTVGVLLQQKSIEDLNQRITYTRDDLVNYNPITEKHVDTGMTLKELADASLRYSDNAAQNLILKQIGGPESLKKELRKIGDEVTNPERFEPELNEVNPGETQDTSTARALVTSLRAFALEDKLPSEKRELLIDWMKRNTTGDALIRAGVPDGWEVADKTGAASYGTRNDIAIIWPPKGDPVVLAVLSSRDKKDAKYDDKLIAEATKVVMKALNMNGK
For data set [11], the target named is T1, Imipenem-hydrolyzing beta-lactamase (Enterobacter cloacae). Description: Inhibition of Enterobacter cloacae NMCA beta-lactamase assessed as residual activity at 100 uM at pH 5 using acetate buffer by spectrophotometry; values are per cent of control.
A short description of data set [12]: Inhibition of TEM1 beta-lactamase assessed as residual activity at 100 uM at pH 5 using acetate buffer by spectrophotometry; values are per cent of control.
Data set [13] has as its target Beta-lactamase OXA-10 (Pseudomonas aeruginosa) (UniProt P14489). The data set is described as follows: Inhibition of Pseudomonas aeruginosa OXA10 beta-lactamase assessed as residual activity at 100 uM at pH 5 using acetate buffer by spectrophotometry; values are per cent of control.
Data set [14] has as its target Beta-lactamase (Enterobacter cloacae) (UniProt P05364). Description: Inhibition of Enterobacter cloacae P99 beta-lactamase assessed as residual activity at 100 uM at pH 5 using acetate buffer by spectrophotometry; values are per cent of control.
In data set [15] the test system is Bacillus cereus. The data set is described as follows: Ratio of Kcat to Km for Bacillus cereus BC2 beta-lactamase.
Data set [16] concerns the target T1, Imipenem-hydrolyzing beta-lactamase (Enterobacter cloacae). Description: Ratio of Kcat to Km for Enterobacter cloacae NMCA beta-lactamase.
For data set [17], the target named is Beta-lactamase OXA-10 (Pseudomonas aeruginosa) (UniProt P14489). Description: Ratio of Kcat to Km for Pseudomonas aeruginosa OXA10 beta-lactamase.
Data set [18] in a line: Ratio of Kcat to Km for TEM1 beta-lactamase.
The subject of data set [19] is Bacillus cereus. The data set is described as follows: Activity of Bacillus cereus BC2 beta-lactamase.
The target of data set [20] is Beta-lactamase VIM-4 (Pseudomonas aeruginosa) (UniProt Q8KRJ3). The data set is described as follows: Ratio of Kcat to Km for Pseudomonas aeruginosa VIM4 beta-lactamase.
The nature of data set [21]: Activity of TEM1 beta-lactamase.
Data set [22] relates to O=C(Cc1cccs1)N[C@@H]1C(=O)N2C(C(=O)O)=C(/C=C/c3ccc([N+](=O)[O-])cc3[N+](=O)[O-])CS[C@H]12. Description: Activity of Pseudomonas aeruginosa VIM4 beta-lactamase.
Substrate in data set [23]: O=C(Cc1cccs1)N[C@@H]1C(=O)N2C(C(=O)O)=C(/C=C/c3ccc([N+](=O)[O-])cc3[N+](=O)[O-])CS[C@H]12
The data set is described as follows: Activity of Enterobacter cloacae NMCA beta-lactamase.

Substrate in data set [24]: O=C(Cc1cccs1)N[C@@H]1C(=O)N2C(C(=O)O)=C(/C=C/c3ccc([N+](=O)[O-])cc3[N+](=O)[O-])CS[C@H]12
The data set is described as follows: Activity of Pseudomonas aeruginosa OXA10 beta-lactamase.

Chain of Beta-lactamase (P00808 whole entry): as above

As a reminder, the Ki is the equilibrium dissociation constant of an inhibitor or competing ligand from its target. A lower Ki goes with tighter binding. In turn, `O=C(O)CC(C(=O)O)C(O)C(=O)O` (stereo not given) [ISOCITRATE] displayed a Ki in [1] of 2200 µM.
The term residual activity denotes what remains of the control signal, in per cent. In the case of `COC(=O)C(CC(=O)O)(CC(=O)O)NC(=O)COc1ccccc1`, the residual activity in [2] came to 66%; in data set [3], 96%; in data set [4], 100%; in data set [5] it was 98%; in data set [6], 100%; in data set [7], 100%. In addition, the residual activity in data set [8] worked out at 85%; in data set [9] it was 86%.
Regarding `CCOC(=O)CC(N)(CC(=O)OCC)C(=O)OCC`, the residual activity in [3] is 82%; in [5], 71%; in data set [7], 93%; in data set [8] it was 87%; in data set [9], 92%.
`COC(=O)CC(CC(=O)OC)(NC(=O)Cc1ccccc1)C(=O)OC`: the residual activity in data set [9] is 100%.
Regarding `COC(=O)C(N)(CC(=O)O)CC(=O)O`, the residual activity in [2] was 94%; in data set [10], 97%; in [3], 96%; in data set [4], 96%; in [11], 96%; in data set [5], 99%. In addition, the residual activity in [6] stood at 100%; in data set [12], 92%; in data set [13], 83%; in data set [7], 90%; in [8] it was 100%; in [14] it was 93%. The residual activity in data set [9] was 100%.
With `NC(C(=O)O)C(CC(=O)O)C(=O)O` (stereo not given), the residual activity in data set [2] is 100%; in [10], 97%; in data set [3], 85%; in [4], 92%; in data set [11], 86%; in data set [5], 100%. Further, the residual activity is 94% in data set [6]; 90% in data set [12]; 85% in data set [13]; 100% in [7]; 100% in data set [8]; 94% in data set [14].
For `COC(=O)C(CC(=O)OCc1ccccc1)(CC(=O)OCc1ccccc1)NC(=O)COc1ccccc1`, the residual activity in data set [4] stood at 10%.
In the case of `COC(=O)CC(N)(CC(=O)OC)C(=O)OCc1ccccc1`, the residual activity in [4] and in [7] was 100% throughout.
Take `O=C(O)CC(CC(=O)O)(NC(=O)COc1ccccc1)C(=O)O`: the residual activity in data set [2] came to 96%; in [10], 70%; in [3], 80%; in data set [4], 84%; in data set [11], 85%; in data set [5] it was 96%. Moreover, the residual activity was 100% in [6]; 100% in data set [12]; 82% in [13]; 100% in [7]; 97% in data set [8]; 100% in data set [14].
`COC(=O)CC(N)(CC(=O)OC)C(=O)O`: the residual activity in data set [2] amounted to 95%; in data set [10], 100%; in data set [3], 95%; in data set [4] it was 100%; in data set [11], 99%; in data set [5], 99%. For the same molecule, the residual activity came to 100% in [6]; 87% in [12]; 79% in data set [13]; 100% in data set [7]; 100% in data set [8]; 73% in data set [14]. The residual activity in data set [9] came out at 100%.
For `O=C(O)CC(O)(CC(=O)O)C(=O)O` [CITRIC ACID], in data set [1], the Ki is 490 µM.
As usually defined, the Km is the substrate concentration at which the rate is half of its maximum. A word on the kcat: it is the maximal rate divided by the concentration of active sites. On to `O=C(Cc1cccs1)N[C@@H]1C(=O)N2C(C(=O)O)=C(/C=C/c3ccc([N+](=O)[O-])cc3[N+](=O)[O-])CS[C@H]12`, for which the Ratio in data set [15] was 4 ×10⁶ /M/s; in [16] it was 3.5 ×10⁶ /M/s; in data set [17], 2 ×10⁷ /M/s; in data set [18], 2.5 ×10⁶ /M/s; in data set [20] it was 4 ×10⁶ /M/s. In addition, the Km in data set [19] was found to be 10 µM; in data set [21], 20 µM. Also, the results for the kcat in [19] and in data set [21] were 40 s⁻¹ and 50 s⁻¹, respectively.
As for “Beta-lactamase VIM-4 (Pseudomonas aeruginosa) (from UniProt Q8KRJ3)”, in data set [22], the Km amounted to 10 µM and the catalytic constant (kcat) is 40 s⁻¹.
Consider `CCOC(=O)C1CC(=O)NC1C(=O)OCC` (stereo not given), for which the residual activity is 100% in data set [2]; 100% in data set [10]; 100% in [3]; 91% in data set [4]; 93% in data set [11]; 100% in [5]. The residual activity in data set [6] is 94%; in [12], 86%; in data set [13] it was 87%; in [7] it was 100%; in data set [8], 100%; in data set [14] it was 100%.
Consider `COC(=O)C(N)(CC(=O)OCc1ccccc1)CC(=O)OCc1ccccc1`, for which the residual activity in data set [2] turned out to be 63%; in data set [3] it was 100%; in [4], 100%; in data set [5], 81%; in [7] it was 93%; in data set [8], 100%. The residual activity in [9] was 100%.
For `CCOC(=O)CCC1(C(=O)OCC)CCC(=O)N1` (stereo not given), the residual activity in [2] was determined as 100%; in [10], 96%; in data set [3] it was 85%; in data set [4], 97%; in [11] it was 100%; in data set [5], 94%. For the same molecule, the residual activity in data set [6] turned out to be 96%; in data set [12], 80%; in data set [13] it was 98%; in data set [7], 100%; in data set [8] it was 100%; in data set [14] it was 100%.

B1: Imipenem-hydrolyzing beta-lactamase (Enterobacter cloacae), P52663 (protein)
chain: T1 sequence (whole entry)
B1: in [23], the Km was 40 µM and the kcat was 130 s⁻¹.

B2: Beta-lactamase OXA-10 (Pseudomonas aeruginosa), P14489 (protein)
chain: MKTFAAYVIIACLSSTALAGSITENTSWNKEFSAEAVNGVFVLCKSSSKSCATNDLARASKEYLPASTFKIPNAIIGLETGVIKNEHQVFKWDGKPRAMKQWERDLTLRGAIQVSAVPVFQQIAREVGEVRMQKYLKKFSYGNQNISGGIDKFWLEGQLRISAVNQVEFLESLYLNKLSASKENQLIVKEALVTEAAPEYLVHSKTGFSGVGTESNPGVAWWVGWVEKETEVYFFAFNMDIDNESKLPLRKSIPTKIMESEGIIGG
B2: in [24], the Km amounted to 20 µM and the kcat was 400 s⁻¹.
